Measurements reported in article PMC7782499, “Progerinin, an optimized progerin-lamin A binding inhibitor, ameliorates premature senescence phenotypes of Hutchinson-Gilford progeria syndrome” (Communications Biology, 2021).
Several values for one entry are separate records, joined by “and”; a condition that tells them apart may be missing. Equal values may be shown once.

Legend:
[1] = biological target: T1, progerin (Mus musculus, UniProt P48678, DEL608-657); test: Western blot of progerin and H3K9me3 in tissue samples (lung, liver, kidney); type: in vivo; settings: for H3K9me3 intensity / Progerin intensity: D011-treated LmnaG609G/+ mice
T1 construct: Lamin A/C and progerin amounts in tissue samples including lung, liver, and kidney; from tissue; host or cells: lung, liver and kidney of Lmna G609G/+ mice
T1 sequence (P48678 with tags, fused parts or gaps DEL608-657): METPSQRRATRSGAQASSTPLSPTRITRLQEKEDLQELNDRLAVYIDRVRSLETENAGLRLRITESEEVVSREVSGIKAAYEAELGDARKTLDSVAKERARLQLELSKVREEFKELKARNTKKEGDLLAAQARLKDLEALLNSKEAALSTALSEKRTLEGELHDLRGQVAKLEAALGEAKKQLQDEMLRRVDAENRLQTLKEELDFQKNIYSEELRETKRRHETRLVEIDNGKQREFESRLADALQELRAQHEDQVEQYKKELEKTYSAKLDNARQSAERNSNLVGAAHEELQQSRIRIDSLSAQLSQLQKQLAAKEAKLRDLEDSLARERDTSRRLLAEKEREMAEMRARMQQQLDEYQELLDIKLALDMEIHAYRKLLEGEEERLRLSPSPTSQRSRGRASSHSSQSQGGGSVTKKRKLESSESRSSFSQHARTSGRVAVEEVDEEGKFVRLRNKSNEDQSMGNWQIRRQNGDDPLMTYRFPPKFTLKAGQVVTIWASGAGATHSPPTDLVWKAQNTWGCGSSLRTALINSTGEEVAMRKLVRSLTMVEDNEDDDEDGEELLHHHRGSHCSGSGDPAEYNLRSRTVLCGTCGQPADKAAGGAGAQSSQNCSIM
Source text: Fig. 4 Oral administration of SLC-D011 suppresses premature aging features. A Gross morphology of SLC-D011-treated (D011) mice at 8 weeks old. Body size of treated mouse was apparently larger than that of the untreated control (Con) mouse. B Oral administration of SLC-D011 increases body weights of Lmna^G609G/G609G mice. Compared with untreated control group, body weight of treated mouse was increased by ~35%, *p < 0.05. C Oral administration of SLC-D011 extends the life span of Lmna^G609G/G609G mouse. SLC-D011 in monoolein-based solution was treated by oral gavage (50 mg/kg, daily) from 5 weeks old. […] E Grip test of Lmna^G609G/+ mice at 41-week-old was performed after administration of SLC-D011 for 6 weeks. The test was repeated 10 times for each mouse (n > 4), **p < 0.001. Data are presented as mean ± SD. F Electrocardiographic analysis of Lmna^G609G/+ mice (untreated: n = 4; SLC-D011: n = 4) and Lmna^+/+ mice (n = 3) after treatment with SLC-D011 for 6 weeks (unpaired t test). Heart rate is shown as beats per minute (bpm). G Dental abnormalities in Lmna^G609G/+ mice (untreated: n = 4; SLC-D011: n = 5) and Lmna^+/+ mice (n = 4). […] Lower incisors of Lmna^G609G transgenic mice grow toward the palate because of malocclusion. Oral administration of SLC-D011 for 6 weeks alleviates dental abnormalities. H Anti-aging effects of single treatment of SLC-D011 or lonafarnib were measured in HGPS patients-derived cells (AG11513, AG03199, AG11498, and AG03198, Coriell Cell Repositories). Single treatment of SLC-D011, compared to lonafarnib, reduced the expression of progerin but induced the expression of H3K9me3 and cyclin B1 in HGPS cells more effectively. HGPS patients-derived cells were treated with SLC-D011 (500 nM) or lonafarnib (500 nM) for 3 days. I Scheme of interaction between lamin A and progerin. SLC-D011 interrupts the interaction between lamin A and progerin through direct binding to the C-terminal region of progerin. “Con” and “untreated” mean vehicle (monoolein-based solution)-treated mouse group or vehicle (DMSO)-treated cells. TEXT PRINTED IN THE PICTURE: (C) D011: Kaplan-Meier survival curve in Lmna^G609G/G609G: Ave=25.2; Kaplan-Meier survival curve in Lmna^G609G/G609G: Max=26 DOUBTS OF THE COPYIST ABOUT THIS PICTURE: Panel C: Ave=25.2 / Max=26 are assigned to D011 only because they are printed beside the solid curve. No unit is printed with them; the x axis reads Age (weeks). / Panel C: Ave=16.8 / Max=18 are printed beside the dashed curve of the control (Con). They are left out because Con is not a substance.
Lamin A/C and progerin amounts in tissue samples including lung, liver, and kidney analysis of two Lmna^+/+, four untreated Lmna^G609G/+, and four D011-treated Lmna^G609G/+ mice were evaluated by western blotting. Proteins were extracted with RIPA lysis buffer supplemented with protease inhibitors. Tissues were sonicated and centrifuged at 15,000 rpm for 15 min at 4 °C. Protein concentration was determined by Coomassie-blue staining. Cellular lysates in SDS-containing sample buffer were inactivated by heating at 98 °C for 7 min. Proteins were loaded onto 8% SDS-PAGE gels and transferred to PVDF membranes. These membranes were blocked with 3% skimmed milk in TBS-T buffer for 1 h and incubated with primary antibodies including mouse monoclonal anti-progerin (1:100; sc-81611; Santa Cruz Biotechnology), mouse monoclonal anti-lamin A/C (1:500; MANLAC1; Developmental Studies Hybridoma Bank), and rabbit polyclonal anti-H3K9me3 (1;2000; Ab8898; Abcam) at 4°C overnight. Blots were then incubated with 1:10,000 goat anti-mouse (Pierce, Thermo Fisher Scientific) or 1:10,000 goat anti-rabbit (Pierce, Thermo Fisher Scientific) IgG (HRP conjugated) in 1% skimmed milk and washed with TBS-T buffer. Bands were developed using and Intron ECL detection system and quantified using Image J (National Institute of Health, NIH).
Fig. S10. […]

[2] = Liver microsomal stability, mouse; type: in vitro ADME; settings: liver microsomes, read-out: Liver microsomal stability (% remaining during 30min)
Method: For PK analysis, 5 mg/kg of JH4 in 10% DMSO, 5% […] solution were intravenously injected and 10 mg/kg of JH4 in 10% NMP and 90% PEG400 solution were orally delivered. At pre-set time-points, blood concentration of JH4 was determined by LC-MS/MS analysis[22],[23]. Other chemicals were also tested using similar protocol. In vitro ADME studies (plasma protein binding, CYP inhibition, microsomal stability, plasma stability, and hERG inhibition) were performed by New Drug Development Center (Daegu, Korea) using standard protocols[24],[25].

[3] = Lmna G609G/+ mice, oral 50 mg/kg daily for 8 weeks

Compound: CC1(C)Oc2cc3oc(=O)ccc3cc2C[C@@H]1OC/C=C/c1ccccc1 [SLC-D011]
- H3K9me3 intensity ([1]; Kidney, Ave): 6.21 AU and 9.731 AU
- Progerin intensity ([1]; Kidney, Ave): 4.42 AU and 7.581 AU
- H3K9me3 intensity ([1]; Kidney, individual replicate): 7.144 AU and 5.202 AU and 6.284 AU and 10.9311 AU and 8.4105 AU and 9.851 AU
- Progerin intensity ([1]; Kidney, individual replicate): 5.843 AU and 4.429 AU and 2.988 AU and 9.2 AU and 12.7266 AU and 0.8173 AU
- H3K9me3 intensity ([1]; Liver, Ave): 4.595 AU and 7.491 AU
- H3K9me3 intensity ([1]; Liver, individual replicate): 4.833 AU and 4.0316 AU and 4.921 AU and 8.228 AU and 7.116 AU and 7.128 AU
- Progerin intensity ([1]; Liver, individual replicate): 1.2695 AU and 1.954 AU and 0.8023 AU and 0.5773 AU and 0.1521 AU and 0.4975 AU
- H3K9me3 level in tissues [1, 3]: increase of H3K9me3
- Progerin level in tissues [1, 3]: Obvious reduction of progerin
- Progerin intensity ([1]; Lung, Ave): 1.397 AU and 0.9832 AU
- H3K9me3 intensity ([1]; Lung, individual replicate): 2.3231 AU and 2.511 AU and 2.358 AU and 5.884 AU and 5.376 AU and 5.841 AU
- Progerin intensity ([1]; Lung, individual replicate): 2.376 AU and 1.606 AU and 0.2082 AU and 2.142 AU and 0.6098 AU and 0.1984 AU
- remaining at 0.5 h [2]: 59.7%
